From PMC9946977, “Identification of linderalactone as a natural inhibitor of SHP2 to ameliorate CCl4-induced liver fibrosis” (Frontiers in Pharmacology, 2023)
pKd: −log10 of the molar value.

Legend:
[1] = biological target: T1, SHP2-PTP WT (Homo sapiens, UniProt Q06124); assay: BLI assay, wildtype SHP2-PTP; conditions: 1:1 binding model
T1 construct: Human SHP2 PTP domain (A237–I529) expression constructs; His-tag; made in house; host or cells: E. coli BL21 (DE3)
T1 sequence (Q06124 237-529): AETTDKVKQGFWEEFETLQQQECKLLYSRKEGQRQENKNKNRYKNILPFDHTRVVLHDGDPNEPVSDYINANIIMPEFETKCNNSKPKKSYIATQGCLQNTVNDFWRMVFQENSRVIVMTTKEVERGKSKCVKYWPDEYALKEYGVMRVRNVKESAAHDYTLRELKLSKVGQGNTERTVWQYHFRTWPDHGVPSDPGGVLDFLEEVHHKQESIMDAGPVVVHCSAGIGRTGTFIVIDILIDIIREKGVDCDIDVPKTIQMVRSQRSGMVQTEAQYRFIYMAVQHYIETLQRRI
Experimental: The BLI assay was performed using a FortéBio Octet 96 system. To label the biotin group on SHP2 proteins, NHS-PEG12-Biotin […] was added to the purified SHP2-PTP solution […] at 1.5:1 ratio for 2 h at 4°C. The reaction mixture was then loaded onto a column (GENEMORE, #G-MM-IGT) to remove excess free biotin. The biotin-labelled-SHP2-PTP protein was loaded onto super streptavidin (SSA) sensors (#18-5057, Octet) in a buffer containing […] 25 mM HEPES, 150 mM NaCl, and 0.02% (v/v) Tween-20. After equilibrium, the kinetics of the LIN and SHP2-PTP association were analysed by soaking the SSA sensors in a compound solution with various LIN concentrations for 300 s (6.25, 12.5, 25, 50, 100, and 200 μM), followed by 300 s of dissociation in the same HEPES buffer. The equilibrium constant (KD) values were assessed using the FortéBio data analysis software by fitting the kinetic data using a 1:1 binding model.

[2] = system: CCl4-induced liver fibrosis; assay: CCl4-induced liver fibrosis mouse model: liver injury and fibrosis; type: in vivo, C57BL/6 mice; conditions: CCl4 mice
Experimental: (§1) C57BL/6 mice (20 ± 2 g) were obtained from Hangzhou Medical College Experimental Animal Center (Hangzhou, China). The animals were maintained under controlled temperature (22°C ± 1°C), humidity (50%), and light (12 h light/12 h dark). The animals were fed a standard laboratory diet and provided with free access to tap water. All animals received humane care according to institutional animal care guidelines approved by the Experimental Animal Ethical Committee of Hangzhou Medical College. Forty mice were randomly divided into six groups: (1) vehicle control (n = 7); (2) CCl4 model (n = 7); (3) CCl4 + LIN (20 mg/kg) (n = 7); (4) CCl4 + LIN (40 mg/kg) (n = 7); (5) LIN (40 mg/kg) (n = 7); and (6) CCl4 + silymarin (SIL) (200 mg/kg) (n = 5). LIN and SIL were dissolved in 0.5% CMC-Na solution. Mice were administered LIN or SIL (intragastric administration, i.g.) once per day and CCl4 (intraperitoneal injection, i.p.; mixed 1:3 in olive oil, 2 mL/kg) twice per week for 4 weeks. Mice in the vehicle control group received olive oil (i.p. twice a week, 4 weeks) and 0.5% CMC-Na (i.g. every day, 4 weeks). After treatment, the mice were sacrificed, and plasma and liver tissues were collected and further analysed.
Serum was collected from blood samples after centrifugation at 860 × g for 15 min. Serum ALT (Nanjing Jiancheng Bioengineering Institute, C010-2-1) and AST (Nanjing Jiancheng Bioengineering Institute, C009-2-1) activities were measured using kits, according to the manufacturer’s instructions. Liver hydroxyproline content was determined using the alkaline hydrolysis method, as described in the kits. Serum levels of laminin (LN) were measured using ELISA kits, according to the manufacturer’s instructions (Shanghai YANJIN Biological Technology Co., LTD, F12019).
(§2) Total RNA was extracted from liver tissues and LX-2 cells using the TRIzol reagent. cDNA was synthesised using a PrimeScript RT Master Mix kit. Real-time PCR was performed using SYBR Green premix according to the manufacturer’s instructions. Relative expression of target genes was normalised to actin, analysed by the delta-delta-CT method and given as a ratio compared with the vehicle control. Primer sequences used in this study are listed in Supplementary Material.
A sample of the liver was fixed in 10% phosphate-buffered saline (PBS)-formalin solution and embedded in paraffin. Samples were sectioned (5 μm) and stained with haematoxylin-eosin (H&E) for histological observation of liver injury and stained with Masson’s trichrome and Sirius red to observe collagen deposition in the liver.

[3] = system: TGF-β/Smad pathway; assay: CCl4 mouse model: liver TGF-β/Smad signalling (real-time PCR, Western blot); type: in vivo, C57BL/6 mice
Experimental: as §1, §2
Liver proteins were isolated by using a lysis buffer containing 50 mM Tris-HCl (pH7.5), 150 mM NaCl, 1 mM EDTA, 20 mM NaF, 0.5% NP-40, 10% glycerol, 1 mM phenylmethylsulphonyl fluoride, 10 μg/mL aprotinin, 10 μg/mL leupeptin, and 10 μg/mL pepstatin. The supernatants were collected after centrifugation at 3,000 g for 10 min at 4°C, and the protein concentration of each sample was determined and normalised to the same protein concentration. Protein samples were separated by sodium dodecyl sulphate-polyacrylamide gel electrophoresis and transferred onto polyvinylidene fluoride membranes. The membranes were incubated with the indicated primary and secondary antibodies, and the proteins in the membranes were visualised using a chemiluminescence kit. TGF-® antibody (CST, 3711), Smad 2/3 antibody (CST, 8685), p-Smad 2/3 antibody (CST, 8828), anti-α-SMA antibody (Santa Cruz, SC-53142), vimentin antibody (ABclonal, A19607), desmin antibody (ABclonal, A3736), GAPDH antibody (Beyotime, AF0006), and SHP2 antibody (CST, 3397). […]

[4] = system: SHP2-depleted LX-2 cells; assay: SHP2 knockdown (siRNA) LX-2 cells treated with LIN; type: cell-based, human; conditions: LX-2 cells transfected with SHP2 siRNA
Experimental: The LX-2 cell line was purchased from the Cell Bank Type Culture Collection of the Chinese Academy of Sciences (Shanghai, China). Cells were cultured in DMEM supplemented with 10% [v/v] foetal bovine serum, 2 mM glutamine, 100 U/ml penicillin, and […] streptomycin. SHP-2 and control siRNAs were obtained from Suzhou GenePharma Co., Ltd. (sense 5'-3': GAGAGAGGAAAGAGUAAAUTT; antisense 5'-3': AUUUACUCUUUCCUCUCUCTT). Transfection was performed according to the manufacturer’s instructions. Subsequent real-time PCR and western blotting were performed to analyse transfection efficiency.
as §2

[5] = LIN 20 and 40 mg/kg i.g. once per day, 4 weeks, p < 0.05
[6] = LIN 20 and 40 mg/kg, dose-dependent

`C/C1=C\CCC2=C[C@@H](OC2=O)c2c(C)coc2C1` [LIN, linderalactone] was tested. Which pKd [1] did it give?
The pKd was 3.18.

And the “hepatic Col1a1 mRNA level” value ([2]; LIN 20 mg/kg)?
The value was “significantly reversed”.

And the “hepatic Col3a1 mRNA level” value ([2]; LIN 20 mg/kg)?
Its value is “significantly reversed”.

And the “collagen deposition (Masson's trichrome, Sirius red)” value ([2]; LIN 40 mg/kg)?
Its value is “mild collagen deposition in the liver without bridging fibrosis”.

What about the “serum ALT level” value [2, 5] of the same compound?
The value was “significantly reduced”.

What about the “serum AST level” value [2, 5] of the same compound?
Its value is “significantly reduced”.

What about the liver hydroxyproline level [2, 6] of the same compound?
Its liver hydroxyproline level is “decreased”.

And the serum laminin level [2, 6]?
The serum laminin level was “decreased”.

And the “CCl4-induced liver damage (H&E: immune cell infiltration, swelling, necrosis of hepatocytes)” value ([2]; LIN treatment)?
Its value is “ameliorated”.

And the “extent of collagen deposition (Masson's trichrome, Sirius red)” value ([2]; LIN, dose-dependent)?
Its value is “ameliorated”.

What about the “hepatic TGF-β protein expression” value ([3]; CCl4 mice, LIN 40 mg/kg, Western blot) of the same compound?
Its value is “reduced”.

What about the “hepatic TGF-β mRNA expression” value ([3]; CCl4 mice, LIN 40 mg/kg, real-time PCR) of the same compound?
Its value is “reduced”.

And the “Smad2/3 phosphorylation in the liver” value ([3]; CCl4 mice, Western blot)?
Its value is “significantly inhibited”.

What about the “expression level of SHP2 protein” value ([3]; liver (Figure 4D) and LX-2 cells (Figure S2), Western blot) of the same compound?
The value was “do not affect”.

And the “sensitivity of fibrogenic gene expression to LIN treatment” value [4]?
The value was “much less sensitive”.
